Starred links: 1 amine or outer side, 2 acyl side, 3 side chain; linkers in the order of their positions; H or OH if unused. Non-standard residues stand in square brackets, D forms with d. Residues, ends and D or L forms follow the SMILES beside them. Groups on a side chain read outwards from the residue. *: point of attachment. C18 diacid = O=C(O)CCCCCCCCCCCCCCCCC(=O)*; γGlu = O=C(O)[C@H](CCC(=O)[*:2])N[*:1]; αMeF = C[C@](N)(Cc1ccccc1)C(=O)O; AEEA = NCCOCCOCC(=O)O; Aib = CC(C)(N)C(=O)O

In test [1] the target is human glucagon receptor (hGCGR) (Homo sapiens, UniProt P47871). The test is described as follows: cAMP production (HTRF) in CHO cells expressing hGCGR. The arrangement: expressed in transfected cells. To be noted: Table 7, peptides modified at position 20; cAMP in CHO hGCGR cells; geometric mean; read-out: hGluc-R EC50. The format is cell-based. In outline:
(§1)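 Potency values represent EC50 from 4-parameter logistic curves of HTRF % Delta F signal. Receptor-expressing CHO cells (hGCGR 2×10^5 cells/mL, hGLP-1R 1×10^5 cells/mL) were exposed for 30 min at room temperature before two-step cAMP detection.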

Test [2] deals with human GLP-1 receptor (hGLP-1R) (Homo sapiens, UniProt P43220). The test is described as follows: cAMP production (HTRF) in CHO cells expressing hGLP-1R. The format is cell-based. More on the design: expressed in transfected cells. To be noted: for EC50: Table 7, peptides modified at position 20, cAMP in CHO hGLP-1R cells, geometric mean, read-out: hGLP-1R EC50; for % Relative Potency Ratio: Table 7, % GLP-1R activity relative to GLP-1 / % GlucR activity relative to glucagon. In outline: as §1
Sequence of human GLP-1 receptor (hGLP-1R) (P43220 24-463): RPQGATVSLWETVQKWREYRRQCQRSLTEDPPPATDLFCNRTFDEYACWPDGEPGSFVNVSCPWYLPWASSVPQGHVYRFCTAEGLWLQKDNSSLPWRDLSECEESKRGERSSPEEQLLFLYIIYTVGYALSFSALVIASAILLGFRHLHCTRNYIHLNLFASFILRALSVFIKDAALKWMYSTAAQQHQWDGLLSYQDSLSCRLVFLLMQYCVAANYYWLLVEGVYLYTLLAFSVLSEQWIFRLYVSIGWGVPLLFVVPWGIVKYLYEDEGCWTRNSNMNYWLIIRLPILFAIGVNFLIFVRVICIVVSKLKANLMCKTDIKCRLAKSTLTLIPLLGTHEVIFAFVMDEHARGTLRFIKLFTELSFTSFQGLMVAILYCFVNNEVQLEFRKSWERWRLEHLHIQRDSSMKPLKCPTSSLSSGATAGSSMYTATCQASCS
Background: cAMP levels reflect the balance of adenylyl cyclase and phosphodiesterase activity.

Sequence of human glucagon receptor (hGCGR) (P47871 26-477): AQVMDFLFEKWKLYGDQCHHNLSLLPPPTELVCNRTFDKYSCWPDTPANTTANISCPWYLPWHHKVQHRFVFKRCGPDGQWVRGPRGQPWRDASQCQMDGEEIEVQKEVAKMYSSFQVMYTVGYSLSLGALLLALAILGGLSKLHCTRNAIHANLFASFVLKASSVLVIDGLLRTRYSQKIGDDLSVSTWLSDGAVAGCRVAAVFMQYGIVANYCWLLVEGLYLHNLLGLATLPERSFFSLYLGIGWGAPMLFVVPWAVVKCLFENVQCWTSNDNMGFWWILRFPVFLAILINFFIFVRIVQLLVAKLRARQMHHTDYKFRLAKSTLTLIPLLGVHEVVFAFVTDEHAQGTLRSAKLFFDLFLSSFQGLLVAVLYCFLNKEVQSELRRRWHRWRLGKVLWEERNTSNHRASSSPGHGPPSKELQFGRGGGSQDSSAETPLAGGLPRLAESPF

A word on the EC50: it is the concentration giving half of the maximal effect. Consider `CC(C)C[C@H](NC(=O)C(C)(C)NC(=O)[C@H](CCC(N)=O)NC(=O)[C@@H](NC(=O)[C@H](Cc1ccccc1)NC(=O)[C@H](CC(=O)O)NC(=O)[C@H](CCCCNC(=O)COCCOCCNC(=O)COCCOCCNC(=O)CC[C@H](NC(=O)CCCCCCCCCCCCCCCCC(=O)O)C(=O)O)NC(=O)[C@H](C)NC(=O)C(C)(C)NC(=O)[C@H](CCCNC(=N)N)NC(=O)[C@H](CO)NC(=O)[C@H](CC(=O)O)NC(=O)[C@H](CC(C)C)NC(=O)[C@](C)(Cc1ccccc1)NC(=O)[C@H](CCCCN)NC(=O)[C@H](CO)NC(=O)[C@@H](NC(=O)[C@H](CC(=O)O)NC(=O)[C@H](CO)NC(=O)[C@@H](NC(=O)[C@H](Cc1ccccc1)NC(=O)[C@@H](NC(=O)CNC(=O)[C@H](CCC(N)=O)NC(=O)C(C)(C)NC(=O)[C@@H](N)Cc1c[nH]cn1)[C@@H](C)O)[C@@H](C)O)C(C)C)C(C)C)C(=O)N[C@H](C(=O)N[C@@H](C)C(=O)N[C@H](C(N)=O)[C@@H](C)O)C(C)C` [Peptide 314] (H-H[Aib]QGTFTSDVSK[αMeF]LDSR[Aib]AK([AEEA-AEEA-γGlu-C18 diacid])DFVQ[Aib]LVAT-NH2; N-terminus assumed), for which, in test [1], the EC50 came out at 6.83 nM. Besides, in test [2], the EC50 came to 0.0308 nM and the “% Relative Potency Ratio” value turned out to be 439.3.
`CC(C)C[C@H](NC(=O)C(C)(C)NC(=O)[C@H](CCC(N)=O)NC(=O)[C@@H](NC(=O)[C@H](Cc1ccccc1)NC(=O)[C@H](CC(=O)O)NC(=O)[C@H](CCCCNC(=O)COCCOCCNC(=O)COCCOCCNC(=O)CC[C@H](NC(=O)CCCCCCCCCCCCCCCCC(=O)O)C(=O)O)NC(=O)[C@H](C)NC(=O)[C@H](C)NC(=O)[C@H](CCCNC(=N)N)NC(=O)[C@H](CO)NC(=O)[C@H](CC(=O)O)NC(=O)[C@H](CC(C)C)NC(=O)[C@](C)(Cc1ccccc1)NC(=O)[C@H](CCCCN)NC(=O)[C@H](CO)NC(=O)[C@@H](NC(=O)[C@H](CC(=O)O)NC(=O)[C@H](CO)NC(=O)[C@@H](NC(=O)[C@H](Cc1ccccc1)NC(=O)[C@@H](NC(=O)CNC(=O)[C@H](CCC(N)=O)NC(=O)C(C)(C)NC(=O)[C@@H](N)Cc1c[nH]cn1)[C@@H](C)O)[C@@H](C)O)C(C)C)C(C)C)C(=O)N[C@H](C(=O)N[C@@H](C)C(=O)N[C@H](C(N)=O)[C@@H](C)O)C(C)C` [Peptide 315]: in test [1], the EC50 is 5.85 nM. Moreover, in test [2], the EC50 is 0.0181 nM and the “% Relative Potency Ratio” value was 639.1.
Taken in the same sequence, the figures for `CC[C@H](C)[C@H](NC(=O)[C@H](Cc1c[nH]c2ccccc12)NC(=O)[C@H](CCC(N)=O)NC(=O)[C@@H](NC(=O)[C@H](Cc1ccccc1)NC(=O)[C@H](CC(=O)O)NC(=O)[C@H](CCCCNC(=O)COCCOCCNC(=O)COCCOCCNC(=O)CC[C@H](NC(=O)CCCCCCCCCCCCCCCCC(=O)O)C(=O)O)NC(=O)[C@H](C)NC(=O)[C@H](C)NC(=O)[C@H](CCCNC(=N)N)NC(=O)[C@H](CO)NC(=O)[C@H](CC(=O)O)NC(=O)[C@H](CC(C)C)NC(=O)[C@](C)(Cc1ccccc1)NC(=O)[C@H](CCCCN)NC(=O)[C@H](CO)NC(=O)[C@@H](NC(=O)[C@H](CC(=O)O)NC(=O)[C@H](CO)NC(=O)[C@@H](NC(=O)[C@H](Cc1ccccc1)NC(=O)[C@@H](NC(=O)CNC(=O)[C@H](CCC(N)=O)NC(=O)[C@](C)(CO)NC(=O)[C@@H](N)Cc1c[nH]cn1)[C@@H](C)O)[C@@H](C)O)C(C)C)C(C)C)C(=O)N[C@@H](C)C(=O)N[C@@H](CC(N)=O)C(=O)N[C@H](C(N)=O)[C@@H](C)O` [Peptide 318] were 12 nM, 0.0553 nM and 429.7.

For the origin of these results see patent US20250353891A1 (MEDIMMUNE LIMITED, priority 2022, published 2025).
